This is an account of results in patent publication US20100119599A1 (ARCHER PHARMACEUTICALS, INC., priority 2006, published 2010).

One experiment relates to Aβ1-40. Put plainly: Measurement of Aβ1-40 in culture medium of 7W WT APP751 CHO cells by ELISA. The note with it: for activity at 5 µM: Cricetulus griseus, Table 1, 5 μM test compound, CHO cells stably transfected with human APP751, culture medium, ELISA, control DMSO, 0 = no detectable amount; for Aβ1-40 (% of control): CHO cells that overexpress APP751, zero = below the detection limit of the assay. The experiment is classed as cell-based, Chinese hamster. How it is done: (§1) Chinese hamster ovary (CHO) cells, stably transfected with human APP751 (7W WT APP751 CHO cells) were used. See, e.g., Koo and Squazzo, J. Biol. Chem., 269(26): 17386-17389, 1994. The cells were maintained in DMEM medium supplemented with 10% fetal bovine serum and 1× mixture of penicillin/streptomycin/fungizone/glutamine mixture (Cambrex, Md.) geneticin as selecting agent in 75 cm^2 cell culture flasks. The 7W WT APP751 CHO cells were plated in 96-well cell culture plates in quadruplicate, containing 200 microliters of culture medium, for 18 hours at 37° C. and 5% CO2. All test compounds were placed in dimethyl sulfoxide (DMSO) before being added to the cultured confluent 7W WT APP751 CHO cells to a concentration of the test compound of 5 μM. The culture medium was collected and diluted before being assayed by ELISAs for Aβ1-40 at 10-fold dilution and Aβ1-42 at 2-fold dilution, respectively. Concentrations of Aβ1-40 and Aβ1-42, expressed in pg/ml, were determined using commercially available ELISAs (Biosource, Calif.) in a colorimetric assay using labeled antibodies detected spectrophotometrically. For compounds with an identification beginning “RI”, the compounds were tested at a concentration of 10 μM for 24 hours. Control cells were treated with DMSO containing no compound. The percentage reduction in levels of Aβ1-40 and Aβ1-42 as compared to control cells not exposed to the test compounds are reported for the compounds in Tables 1, 2, and 3, supra. An entry of “0” indicates no detectable amount of Aβ1-40 or Aβ1-42 according to the assay conditions. The data in Tables 1, 2, and 3 may be rounded to the nearest 0.1%.
(In general: ELISA stands for enzyme-linked immunosorbent assay.)

In a further experiment the test system is Aβ1-42. Put plainly: Measurement of Aβ1-42 in culture medium of 7W WT APP751 CHO cells by ELISA. The experiment is classed as cell-based, Chinese hamster. The note with it: for activity at 5 µM: Cricetulus griseus, Table 1, 5 μM test compound, CHO cells stably transfected with human APP751, culture medium, ELISA, control DMSO, 0 = no detectable amount, read-out: Aβ1-42 (% of control); for Aβ1-42 (% of control): CHO cells that overexpress APP751, zero = below the detection limit of the assay. How it is done:
as §1

Molecules are shown by their SMILES.

With `CC1=C(C(=O)OCCOc2ccccc2)C(c2ccc(Br)cc2)C2=C(CCCC2=O)N1` (stereo not shown) [ST014890, 2-phenoxyethyl 4-(4-bromophenyl)-2-methyl-5-oxo-1,4,6,7,8-pentahydroquinoline-3-carboxylate], the activity at 5 µM with Aβ1-40 is 13.2%; in the experiment on Aβ1-42 it was 67.5%.

As to `CCOC(=O)C1=CN(c2cc(C)ccc2C)C=C(C(=O)OCC)C1c1ccc(OCC)c(OC)c1` [ST052471, ethyl 1-(2,5-dimethylphenyl)-5-(ethoxycarbonyl)-4-(4-ethoxy-3-methoxyphenyl)-1,4-dihydropyridine-3-carboxylate], the “Aβ1-40 (% of control)” value in the experiment with Aβ1-40 is reported as 34.26 % of control. Moreover, the “Aβ1-42 (% of control)” value in the experiment on Aβ1-42 is listed as 57.75 % of control.

In the case of `CCCCOC(=O)C1=C(C)NC2=C(C(=O)CCC2)C1c1ccccc1OC` (stereo not shown) [ST013324, butyl 4-(2-methoxyphenyl)-2-methyl-5-oxo-1,4,6,7,8-pentahydroquinoline-3-carboxylate], the activity at 5 µM turned out to be 54.3% in the experiment with Aβ1-40 and 93.7% in the experiment on Aβ1-42.

As to `CC1=C(C(=O)Nc2ccc(Cl)cc2)C(c2ccccc2)C(C#N)=C(SCC(=O)Nc2ccccc2C)N1` (stereo not shown) [RI_40], the “Aβ1-40 (% of control)” value in the experiment on Aβ1-40 is 25.7 % of control. For the same compound, in the experiment on Aβ1-42, the “Aβ1-42 (% of control)” value is on record as 43.2 % of control.

Take `CC1=C(C(=O)OCCc2ccccc2)C(c2ccc(N(C)C)cc2)C2=C(CC(C)(C)CC2=O)N1` (stereo not shown) [ST052231, 2-phenylethyl 4-[4-(dimethylamino)phenyl]-2,7,7-trimethyl-5-oxo-1,4,6,7,8-pentahydroquinoline-3-carboxylate]: the activity at 5 µM in the experiment with Aβ1-40 came to 38.8%; in the experiment with Aβ1-42, 63.5%.

Take `CC1=C(C(=O)Nc2ccccc2)C(Cc2ccccc2)C(C#N)=C(SCC(=O)Nc2cccc(C)c2)N1` (stereo not shown) [RI_34]: the “Aβ1-40 (% of control)” value in the experiment with Aβ1-40 is given as 31.4 % of control. In addition, the “Aβ1-42 (% of control)” value in the experiment with Aβ1-42 is reported as 26.1 % of control.

With `COC(=O)C1=CN(CC2CCCO2)C=C(C(=O)OC)C1c1cccc(OC)c1OC` (stereo not shown) [ST051459, methyl 4-(2,3-dimethoxyphenyl)-5-(methoxycarbonyl)-1-(oxolan-2-ylmethyl)-1,4-dihydropyridine-3-carboxylate], the “Aβ1-40 (% of control)” value in the experiment on Aβ1-40 is 70.09 % of control. The “Aβ1-42 (% of control)” value in the experiment with Aβ1-42 is given as 85.96 % of control.

In the case of `COCCOC(=O)C1=C(C)NC2=C(C(=O)CCC2)C1c1ccc(O)cc1` (stereo not shown) [ST013254, 2-methoxyethyl 4-(4-hydroxyphenyl)-2-methyl-5-oxo-1,4,6,7,8-pentahydroquinoline-3-carboxylate], the values for the activity at 5 µM with Aβ1-40 and in the experiment on Aβ1-42 were 49.6% and 76.9%, respectively.

With `CCN(CC)c1ccc(C2C(C(=O)OC)=C(C)NC3=C2C(=O)CC(c2ccccc2Cl)C3)cc1` (stereo not shown) [ST015182, methyl 4-[4-(diethylamino)phenyl]-7-(2-chlorophenyl)-2-methyl-5-oxo-1,4,6,7,8-pentahydroquinoline-3-carboxylate], the activity at 5 µM with Aβ1-40 was 39.9%; in the experiment on Aβ1-42, 61.4%.

For the compound `CC1=C(C(=O)Nc2ccc(Cl)cc2)C(c2ccsc2)C(C#N)=C(SCC(=O)Nc2ccc(C)c(Cl)c2)N1` (stereo not shown) [RI_37], the “Aβ1-40 (% of control)” value with Aβ1-40 is recorded as 64.4 % of control. Also, the “Aβ1-42 (% of control)” value in the experiment with Aβ1-42 is listed as 75.8 % of control.

`CCOC(=O)C1=C(C)NC(C)=C(C(=O)OC)C1c1ccc(Br)cc1` (stereo not shown) [ST063245, ethyl 4-(4-bromophenyl)-5-(methoxycarbonyl)-2,6-dimethyl-1,4-dihydropyridine-3-carboxylate]: the “Aβ1-40 (% of control)” value in the experiment on Aβ1-40 is given as 8.423 % of control. The “Aβ1-42 (% of control)” value with Aβ1-42 is on record as 0 % of control.

`CCCCCOC(=O)C1=C(C)NC2=C(C(=O)CCC2)C1c1ccccc1OCC` (stereo not shown) [ST015174, pentyl 4-(2-ethoxyphenyl)-2-methyl-5-oxo-1,4,6,7,8-pentahydroquinoline-3-carboxylate]: the activity at 5 µM with Aβ1-40 was found to be 17.2%; in the experiment with Aβ1-42, 0%.

Regarding `CCOC(=O)C1=C(C)NC(C)=C(C(=O)OC)C1c1cc(Cl)cc(Cl)c1OC` (stereo not shown) [ST211424, methyl 4-(3,5-dichloro-2-methoxyphenyl)-5-(ethoxycarbonyl)-2,6-dimethyl-1,4-dihydropyridine-3-carboxylate], the “Aβ1-40 (% of control)” value in the experiment on Aβ1-40 is recorded as 62.46 % of control. Besides, the “Aβ1-42 (% of control)” value with Aβ1-42 is 91.29 % of control.

On to `CCOc1cc(C2C(C(=O)OC(C)C)=C(C)NC3=C2C(=O)CCC3)ccc1O` (stereo not shown) [ST015043, methylethyl 4-(3-ethoxy-4-hydroxyphenyl)-2-methyl-5-oxo-1,4,6,7,8-pentahydroquinoline-3-carboxylate], for which the activity at 5 µM is 95.9% in the experiment with Aβ1-40 and 68.8% in the experiment on Aβ1-42.

Regarding `CCOC(=O)C1=C(C)NC2=C(C(=O)CCC2)C1c1ccc(Br)cc1` (stereo not shown) [ST211289, ethyl 4-(4-bromophenyl)-2-methyl-5-oxo-1,4,6,7,8-pentahydroquinoline-3-carboxylate], the activity at 5 µM in the experiment with Aβ1-40 stood at 89.1%; with Aβ1-42, 63.6%.

As to `CCc1cccc(NC(=O)CSC2=C(C#N)C(c3csc4ccccc34)C(C(=O)Nc3ccccc3)=C(C)N2)c1` (stereo not shown) [RI_92], in the experiment on Aβ1-40, the “Aβ1-40 (% of control)” value is 60.7 % of control. For the same compound, in the experiment with Aβ1-42, the “Aβ1-42 (% of control)” value was 47.3 % of control.

Take `CC1=C(C(=O)OCCOc2ccccc2)C(c2ccc(OCc3ccccc3)cc2)C2=C(CCCC2=O)N1` (stereo not shown) [ST014899, 2-phenoxyethyl 2-methyl-5-oxo-4-[4-(phenylmethoxy)phenyl]-1,4,6,7,8-pentahydroquinoline-3-carboxylate]: the activity at 5 µM with Aβ1-40 amounted to 55.6%; with Aβ1-42 it was 65.5%.

Regarding `CC1=C(C(=O)Nc2ccccc2)C(c2cccs2)C(C#N)=C(SCC(=O)NC2CCCCC2)N1` (stereo not shown) [RI_25], in the experiment on Aβ1-40, the “Aβ1-40 (% of control)” value was 55.9 % of control. In addition, the “Aβ1-42 (% of control)” value in the experiment on Aβ1-42 was 36.5 % of control.

In the case of `CCOc1ccc(C2C(C(=O)OCCc3ccccc3)=C(C)NC3=C2C(=O)CC(C)(C)C3)cc1` (stereo not shown) [ST015087, 2-phenylethyl 4-(4-ethoxyphenyl)-2,7,7-trimethyl-5-oxo-1,4,6,7,8-pentahydroquinoline-3-carboxylate], the activity at 5 µM with Aβ1-40 turned out to be 35.3%; with Aβ1-42, 43.7%.

With `CCCOCCOC(=O)C1=C(C)NC2=C(C(=O)CC(C)(C)C2)C1c1ccc(Br)cc1` (stereo not shown) [ST052437, 2-propoxyethyl 4-(4-bromophenyl)-2,7,7-trimethyl-5-oxo-1,4,6,7,8-pentahydroquinoline-3-carboxylate], the activity at 5 µM was 5.31% in the experiment with Aβ1-40 and 16.5% with Aβ1-42.

In the case of `CCCCOC(=O)C1=C(C)NC2=C(C(=O)CCC2)C1c1ccc(Br)cc1` (stereo not shown) [ST017167, butyl 4-(4-bromophenyl)-2-methyl-5-oxo-1,4,6,7,8-pentahydroquinoline-3-carboxylate], the figures for the activity at 5 µM with Aβ1-40 and with Aβ1-42 were 79% and 50.5%, respectively.

Consider `CC1=C(C(=O)OCCc2ccccc2)C(c2cccc(Cl)c2Cl)C2=C(CCCC2=O)N1` (stereo not shown) [ST015062, 2-phenylethyl 4-(2,3-dichlorophenyl)-2-methyl-5-oxo-1,4,6,7,8-pentahydroquinoline-3-carboxylate], for which the activity at 5 µM stood at 30.6% in the experiment with Aβ1-40 and 20.8% with Aβ1-42.

Take `CCN(CC)c1ccc(C2C(C(=O)OCCOC)=C(C)NC3=C2C(=O)CCC3)cc1` (stereo not shown) [ST013256, 2-methoxyethyl 4-[4-(diethylamino)phenyl]-2-methyl-5-oxo-1,4,6,7,8-pentahydroquinoline-3-carboxylate]: the activity at 5 µM in the experiment on Aβ1-40 is 60.2%; in the experiment with Aβ1-42, 92.8%.
